Assay results as given in patent US20170334899A1, “AMINO-SUBSTITUTED ISOTHIAZOLES” (Bayer Pharma Aktiengesellschaft, priority 2014, published 2017).

What was measured:
[1] = test system: human cervical tumor cell line HeLa (ATCC CCL-2); test: SAC-Formation - Nocodazole-Induced Assay; type: cell-based; settings: Homo sapiens, HeLa, 24 h, HeLa cells, nocodazole 0.1 μg/ml together with test compound, decrease of mitotic cells (phospho-histone H3 Ser10)
Procedure, shortened: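 Loss of phospho-histone H3 Ser10-positive cells, counted against Hoechst-stained nuclei by high-content imaging, marked mitotic breakthrough. Compounds (0.005–20 μM, 0.5% DMSO) were co-dosed with 0.1 μg/ml nocodazole onto HeLa cells for 24 h at 37 °C. Curves were fitted with a four-parameter Hill equation.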

[2] = test system: HeLa; test: Proliferation assay (crystal violet), HeLa; type: cell-based; settings: Homo sapiens, HeLa, 96 h, HeLa cells; 4 days incubation; crystal violet staining; read-out: IC50 inhibition of proliferation, HeLa
Procedure, shortened: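 Four-day compound exposure (0.001-10 μM, 0.5% DMSO final) began 24 h after seeding 1000-5000 cells/well in medium with 10% fetal calf serum. Cell number read by crystal violet absorbance at 595 nm, scaled between day-zero plate and untreated control; 4-parameter fit gave IC50.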

Compound | IC50 [1] [µM] | IC50 [2] [µM]
Cc1nsc(Nc2cnc(C(F)(F)F)cn2)c1C(=O)Nc1ccc(OCC2CCN(CC(F)(F)F)CC2(F)F)nc1 (centres unmarked) [Example 392, N-(6-{[3,3-difluoro-1-(2,2,2-trifluoroethyl)piperidin-4-yl]methoxy}pyridin-3-yl)-3-methyl-5-{[5-(trifluoromethyl)pyrazin-2-yl]amino}-1,2-thiazole-4-carboxamide] | 0.074 | 0.49
Cc1nsc(Nc2cnc(C(F)(F)F)cn2)c1C(=O)Nc1ccc(N2CCN(CCC(F)(F)F)CC2)cn1 [Example 374, 3-methyl-5-{[5-(trifluoromethyl)pyrazin-2-yl]amino}-N-{5-[4-(3,3,3-trifluoropropyl)piperazin-1-yl]pyridin-2-yl}-1,2-thiazole-4-carboxamide] | 0.12 | 0.92
Cc1nsc(Nc2cncc(C(F)(F)F)n2)c1C(=O)Nc1ccc(F)c(OC2CCN(CCC(F)(F)F)CC2)c1 [Example 343, N-(4-fluoro-3-{[1-(3,3,3-trifluoropropyl)piperidin-4-yl]oxy}phenyl)-3-methyl-5-{[6-(trifluoromethyl)pyrazin-2-yl]amino}-1,2-thiazole-4-carboxamide] | 0.21 | 1.4
Cc1nsc(Nc2cnc(C(F)(F)F)cn2)c1C(=O)Nc1ccc(O[C@H]2CCCN(CC(F)F)C2)nc1 [Example 388, N-(6-{[(3S)-1-(2,2-difluoroethyl)piperidin-3-yl]oxy}pyridin-3-yl)-3-methyl-5-{[5-(trifluoromethyl)pyrazin-2-yl]amino}-1,2-thiazole-4-carboxamide] | 0.037 | 0.37

Now from value to compound:

IC50 [1] [µM] | IC50 [2] [µM] | Compound
0.34 | 0.55 | Cc1nsc(Nc2cnc(C(F)(F)F)cn2)c1C(=O)Nc1ccc(O[C@@H]2CCN(CC(F)(F)F)C2)nc1 [Example 380, 3-methyl-N-(6-{[(3R)-1-(2,2,2-trifluoroethyl)pyrrolidin-3-yl]oxy}pyridin-3-yl)-5-{[5-(trifluoromethyl)pyrazin-2-yl]amino}-1,2-thiazole-4-carboxamide]
0.035 | 1.3 | Cc1nsc(Nc2cnc(C(F)(F)F)cn2)c1C(=O)Nc1ccc(OC2CCCN(CCF)C2)nc1 (centres unmarked) [Example 329, N-(6-{[1-(2-fluoroethyl)piperidin-3-yl]oxy}pyridin-3-yl)-3-methyl-5-{[5-(trifluoromethyl)pyrazin-2-yl]amino}-1,2-thiazole-4-carboxamide]
0.049 | 0.39 | Cc1nsc(Nc2cnc(C(F)(F)F)cn2)c1C(=O)Nc1ccc(F)c(OCC2CCCN(CCF)C2)c1 (centres unmarked) [Example 336, N-(4-fluoro-3-{[1-(2-fluoroethyl)piperidin-3-yl]methoxy}phenyl)-3-methyl-5-{[5-(trifluoromethyl)pyrazin-2-yl]amino}-1,2-thiazole-4-carboxamide]
